According to patent US20240391931A1 (Bristol-Myers Squibb Company, priority 2021, published 2024):

Key:
HER2 = molecular target: T1, HER2 (Homo sapiens, UniProt P04626); assay: HER2 occupancy assay in BT474 cells; format: cell-based; settings: concentration at which 50% of HER2 is irreversible bound, read-out: BT474 HER2 Occ
T1 construct: BT474 and N87 cell lines which endogenously overexpress the HER2 wildtype (WT) protein; endogenous in cells; host or cells: BT474, N87
Protocol: In order to assess free HER2 protein, a biotinylated probe was utilized. BT474, N87, and Ba/F3-HER2YVMA cells were treated with test compound as described for HER2 signaling. After compound treatment, cells were washed three times with cold phosphate buffer saline (PBS, Life Technologies, Carlsbad, CA), and lysed in modified occupancy lysis buffer prepared with an irreversible biotinylated tool compound (1 μM) in 25 mM Tris pH 7.5, 150 mM NaCl, 1% Triton, and supplemented with cOmplete, EDTA-free Protease inhibitor cocktail (Roche), Phosphatase Inhibitor Cocktails 2 and 3 (Sigma-Aldrich), and 1 mM PMSF (Sigma-Aldrich).
To determine % occupancy, lysates were loaded into duplicate plates of the phospho (Tyr1248)/total ErbB2 whole cell lysate MSD kit (Meso-Scale Discovery) and incubated overnight. Plates were washed and incubation with either HER2-sulfoTag (1:50, Meso Scale Discovery) or Strep-Sulfo Tag (1:1000, Meso Scale Discovery), for detection of […]. A standard curve of untreated cells in serial dilution was included in each plate to independently fit streptavidin (Free HER2) and total HER2 MSD signals; non-specific signal (BSA control spots) was subtracted from each well. Free HER2 was then normalized by total HER2 for each sample. The results are reported as % DMSO control. The normalized data was fitted using a sigmoidal curve analysis program (Graph Pad Prism version 6) with variable Hill slope to determine EC50 values. The results are provided in Table 4, under columns titled “BT474-HER2 Occ”, “N87-HER2 Occ”, and “Ba/F3 YVMA-HER2 Occ”. HER2 Occ is the concentration of test compound at which 50% of HER2 is irreversible bound.

HER2YVMA = HER2YVMA (Homo sapiens, UniProt P04626, INS775YVMA); assay: HER2 signaling (pHER2) in BEAS2B-HER2YVMA cells; format: cell-based; set-up: expressed in transfected cells; host or cells: HEK293 (pool), Ba/F3 (clones), BEAS2B (clones); lentiviral vector pCDH-CMV-MCS-EF1-Neo; settings: read-out: BEAS2B YVMA pHER2 EC50
Chain of HER2YVMA (P04626 with tags, fused parts or gaps INS775YVMA): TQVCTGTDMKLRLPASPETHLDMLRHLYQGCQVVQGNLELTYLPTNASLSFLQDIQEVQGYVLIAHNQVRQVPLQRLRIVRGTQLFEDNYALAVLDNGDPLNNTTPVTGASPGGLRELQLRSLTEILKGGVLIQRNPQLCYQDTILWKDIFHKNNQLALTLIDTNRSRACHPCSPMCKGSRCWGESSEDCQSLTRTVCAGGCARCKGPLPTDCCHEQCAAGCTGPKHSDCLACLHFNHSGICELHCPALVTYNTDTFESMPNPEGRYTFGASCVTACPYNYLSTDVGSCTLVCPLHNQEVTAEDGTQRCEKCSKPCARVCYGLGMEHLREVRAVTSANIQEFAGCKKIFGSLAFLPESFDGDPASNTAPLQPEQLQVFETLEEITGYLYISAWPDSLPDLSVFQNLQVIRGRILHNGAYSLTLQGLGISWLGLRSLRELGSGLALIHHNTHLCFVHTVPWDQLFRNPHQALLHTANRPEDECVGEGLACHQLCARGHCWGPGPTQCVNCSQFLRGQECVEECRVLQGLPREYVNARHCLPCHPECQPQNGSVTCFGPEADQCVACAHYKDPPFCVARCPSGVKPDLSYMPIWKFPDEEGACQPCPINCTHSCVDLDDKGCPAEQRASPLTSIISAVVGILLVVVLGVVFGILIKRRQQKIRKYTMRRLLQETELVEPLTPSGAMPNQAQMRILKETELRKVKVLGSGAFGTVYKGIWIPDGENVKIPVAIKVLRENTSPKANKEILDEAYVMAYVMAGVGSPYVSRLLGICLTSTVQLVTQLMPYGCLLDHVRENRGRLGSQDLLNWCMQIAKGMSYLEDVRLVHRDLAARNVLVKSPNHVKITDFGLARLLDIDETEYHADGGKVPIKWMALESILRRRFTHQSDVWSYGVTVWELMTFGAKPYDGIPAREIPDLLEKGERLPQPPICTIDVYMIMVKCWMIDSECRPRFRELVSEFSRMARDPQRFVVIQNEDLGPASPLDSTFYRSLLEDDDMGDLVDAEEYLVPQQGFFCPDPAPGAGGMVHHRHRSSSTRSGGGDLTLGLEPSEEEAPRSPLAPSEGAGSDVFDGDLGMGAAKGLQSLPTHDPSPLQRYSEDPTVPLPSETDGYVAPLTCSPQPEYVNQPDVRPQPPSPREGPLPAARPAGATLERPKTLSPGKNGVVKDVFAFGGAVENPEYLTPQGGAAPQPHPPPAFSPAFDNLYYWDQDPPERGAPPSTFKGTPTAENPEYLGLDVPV
Protocol: Cell culture, plasmid cloning, and lentiviral transduction were carried out according to standard procedures. The Human HER2 cDNA construct in pCMV6-Entry for the HER2 wildtype (WT) expression was obtained from Origene. The HER2 cDNA including the 12-nucleotide insertion corresponding to YVMA insertion (HER2YVMA) was codon optimized, synthesized and cloned by GenScript (Piscataway, NJ) in pcDNA3.1. The lentiviral constructs expressing HER2YVMA and HER2 WT were sub-cloned using PCR at System Biosciences (SBI, Mountainview, CA) into lentiviral vectors pCDH-CMV-MCS-EF1-Neo and lentiviral particles were generated.
Engineered lines expressing HER2YVMA and HER2 WT were prepared in HEK293 (human embryonic kidney cells), Ba/F3 (Interleukin 3 (IL3)-dependent murine pro B cell line), and BEAS2B (primary immortalized human bronchial epithelial cell line). […]
HER2 signaling was assessed in BT474 and N87 cell lines which endogenously overexpress the HER2 wildtype (WT) protein, in NCI-H1781 cells which endogenously expresses a HER2 mutant protein containing a VC insertion in the kinase domain (HER2VC or G776delinsVC), and in engineered cell lines transduced to express the Her2 mutant protein containing the YVMA insertion (Hek293-HER2YVMA and BEAS2B-HER2YVMA). […]
HER2 signaling was evaluated using phospho (Tyr1248)/total ErbB2 whole cell lysate MSD plates (Meso-Scale Discovery, Gaithersburg, MD). […]

T1 sequence (P04626 23-1255): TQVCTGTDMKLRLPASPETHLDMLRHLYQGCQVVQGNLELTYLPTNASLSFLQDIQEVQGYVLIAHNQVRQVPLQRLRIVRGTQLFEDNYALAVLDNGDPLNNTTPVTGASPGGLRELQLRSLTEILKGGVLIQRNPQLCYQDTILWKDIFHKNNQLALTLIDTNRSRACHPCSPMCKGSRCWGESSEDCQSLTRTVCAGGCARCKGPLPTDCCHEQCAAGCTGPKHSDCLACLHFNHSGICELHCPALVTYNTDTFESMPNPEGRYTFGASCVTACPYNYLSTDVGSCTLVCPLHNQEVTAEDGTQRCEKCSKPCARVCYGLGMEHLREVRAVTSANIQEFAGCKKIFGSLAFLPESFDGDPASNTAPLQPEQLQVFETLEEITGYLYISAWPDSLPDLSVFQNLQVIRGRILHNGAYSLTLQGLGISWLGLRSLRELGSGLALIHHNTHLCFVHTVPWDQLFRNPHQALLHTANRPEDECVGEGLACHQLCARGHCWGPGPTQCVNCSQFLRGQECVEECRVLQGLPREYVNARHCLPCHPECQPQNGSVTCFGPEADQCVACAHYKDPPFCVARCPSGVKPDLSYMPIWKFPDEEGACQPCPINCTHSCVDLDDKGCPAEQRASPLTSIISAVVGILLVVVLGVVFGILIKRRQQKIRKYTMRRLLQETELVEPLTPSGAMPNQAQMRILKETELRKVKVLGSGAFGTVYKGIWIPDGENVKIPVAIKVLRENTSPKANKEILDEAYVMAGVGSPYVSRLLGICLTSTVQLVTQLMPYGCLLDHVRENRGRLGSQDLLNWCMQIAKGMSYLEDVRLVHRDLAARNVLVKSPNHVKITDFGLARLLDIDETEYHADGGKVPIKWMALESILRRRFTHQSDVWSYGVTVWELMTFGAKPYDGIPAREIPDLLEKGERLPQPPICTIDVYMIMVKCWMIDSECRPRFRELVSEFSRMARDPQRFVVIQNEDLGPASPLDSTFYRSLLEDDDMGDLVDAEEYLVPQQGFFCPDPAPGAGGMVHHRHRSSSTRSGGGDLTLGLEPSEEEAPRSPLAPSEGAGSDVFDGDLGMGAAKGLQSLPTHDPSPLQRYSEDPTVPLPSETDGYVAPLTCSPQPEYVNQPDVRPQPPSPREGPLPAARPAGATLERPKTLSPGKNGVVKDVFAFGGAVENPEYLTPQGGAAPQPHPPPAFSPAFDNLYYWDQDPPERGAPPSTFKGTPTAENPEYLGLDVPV

Row | EC50 (HER2) [nM] | EC50 (HER2YVMA) [nM] | Structure (SMILES)
1 | < 100 |  | CN(C)C/C=C/C(=O)N1CCc2c(sc3ncnc(Nc4ccc(Oc5ccc6ncnn6c5)c(Cl)c4)c23)C1 [Compound 5, (E)-1-(4-((4-([1,2,4]triazolo[1,5-a]pyridin-6-yloxy)-3-chlorophenyl)amino)-5,8-dihydropyrido[4′,3′:4,5]thieno[2,3-d]pyrimidin-7(6H)-yl)-4-(dimethylamino)but-2-en-1-one]
2 |  | < 100 | COc1ccc(Oc2ccc(Nc3ncnc4sc5c(c34)CCN(C(=O)/C=C/CN(C)C)C5)cc2C)cn1 [Compound 95, (E)-4-(Dimethylamino)-1-(4-((4-((6-methoxypyridin-3-yl)oxy)-3-methylphenyl)amino)-5,6-dihydropyrido[4′,3′:4,5]thieno[2,3-d]pyrimidin-7(8H)-yl)but-2-en-1-one]
